Results on five compounds are retold here after article PMC12596218 (Journal of Lipid Research, 2025).

Molecules are shown by their SMILES. Where a chain is given by its changes, count along the chain named.

Assay [1] concerns the target T1, NTCP M290T/I291V (NTCP→mAsbt) (Homo sapiens, UniProt Q14973, I291V/M290T).
T1 construct: stably transfected with the full open reading frames of human NTCP, ASBT, SOAT, OATP1B1, OATP1B3, OATP2B1, and murine Asbt (mAsbt); expressed in transfected cells; host or cells: HEK293, stably transfected
T1 sequence (Q14973 1-349 M290T/I291V): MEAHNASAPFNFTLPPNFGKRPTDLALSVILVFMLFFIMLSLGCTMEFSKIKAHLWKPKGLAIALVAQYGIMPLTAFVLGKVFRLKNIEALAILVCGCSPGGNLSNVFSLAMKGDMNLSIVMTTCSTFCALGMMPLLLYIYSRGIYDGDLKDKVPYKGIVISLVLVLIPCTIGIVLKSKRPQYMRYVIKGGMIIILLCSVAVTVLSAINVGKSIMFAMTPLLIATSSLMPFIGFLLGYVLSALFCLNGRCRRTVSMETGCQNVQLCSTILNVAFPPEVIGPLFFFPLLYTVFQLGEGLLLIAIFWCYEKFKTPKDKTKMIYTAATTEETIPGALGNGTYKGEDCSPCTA
Description: [3H]TC transport and inhibition assay, NTCP→mAsbt mutant in HEK293 cells. Conditions: 1 μM [3H]TC, 10 min. It counts as cell-based. On the procedure: (§1) Amplification was performed on a peqSTAR XS PEQLAB PCR cycler (Peqlab) with Pfu DNA polymerase (M774A; Promega) in 18 cycles under the following conditions: initial denaturation for 2 min at 95°C, denaturation for 30 s at 95°C, annealing for 1 min at 55°C, extension for 8 min and 30 s at 72°C, final elongation for 10 min at 72°C and final hold at 4°C. After amplification, the products were digested with DpnI (ER1701; Thermo Fisher Scientific) for 1 h at 37°C and transformed into TOP10 chemically competent E. coli (Thermo Fisher Scientific). Plasmids were isolated using a GeneJET Plasmid Miniprep Kit (Thermo Fisher Scientific) according to the manufacturer's protocol, and the generated point mutations were verified by DNA sequencing (Seqlab Microsynth).
(§2) Cells were seeded onto poly-L-lysine-coated 96-well plates, induced with 1 μg/ml tetracycline, and grown to confluence over 72 h at 37°C. Then, cells were washed with tempered (37°C) phosphate-buffered saline (PBS, containing 137.0 mM NaCl, 2.7 mM KCl, 1.5 mM KH2PO4, and 7.3 mM Na2HPO4, at pH 7.4) and preincubated with 80 μl sodium transport buffer (STB, containing 142.9 mM NaCl, 4.7 mM KCl, 1.2 mM MgSO4, 1.2 mM KH2PO4, 1.8 mM CaCl2, and 20.0 mM HEPES, at pH 7.4) for 5 min at 37°C. For inhibition studies, the medium was replaced by 80 μl STB containing the respective inhibitor or solvent alone and cells were further incubated for 5 min at 37°C. Transport experiments were started by adding 20 μl of a 5-fold concentrated substrate solution (solved in STB). For transport experiments under sodium-free conditions the same buffer composition was used as for STB, but sodium chloride was substituted with equimolar concentrations of choline chloride as previously reported ([20], [24]). Transport experiments were stopped by washing twice with ice-cold PBS and the plates were kept cool on ice until adding the lysis buffer [1% sodium dodecyl sulfate (SDS) and 1 N NaOH]. Then, the cell-associated radioactivity of the respective tritium-labeled substrate or ligand was quantified by liquid scintillation counting using MicroScint-20 scintillation cocktail (Revvity) in a Packard Microplate Scintillation Counter TopCount NXT (Packard Instrument Company). For IC50 transport inhibition measurements, the mean uptake values measured in non-carrier-expressing HEK293 control cells were defined as 0% uptake control and were subtracted from all other values. Values from cells without inhibitor and solvent alone were set to 100%. Finally, all net transport data were expressed as uptake or binding as % of control. All transport or inhibition graphs were generated with GraphPad Prism 6 (GraphPad). Determination of half maximal inhibitory concentrations (IC50) was done by nonlinear regression analysis using the equation log (inhibitor) versus response—variable slope settings. All data points of the IC50 curves represent means ± SD of quadruplicate determinations. For Km measurements, BS uptake in the absence of sodium was regarded as carrier-independent unspecific uptake and was subtracted from the transport rates in the presence of sodium to obtain carrier-specific uptake rates (indicated as dashed lines). From the specific uptake rates, Michaelis Menten Km values were calculated by non-linear regression analysis.

A further assay concerns the target T2, NTCP M290S (NTCP→ASBT) (Homo sapiens, UniProt Q14973, M290S).
T2 construct: stably transfected with the full open reading frames of human NTCP, ASBT, SOAT, OATP1B1, OATP1B3, OATP2B1, and murine Asbt (mAsbt); expressed in transfected cells; host or cells: HEK293, stably transfected
T2 sequence (Q14973 1-349 M290S): T1 sequence (Q14973 1-349 M290T/I291V) with T290S, V291I
Description: [3H]TC transport and inhibition assay, NTCP→ASBT mutant in HEK293 cells. It counts as cell-based. As to conditions: 1 μM [3H]TC, 10 min. On the procedure: as §1, §2

Take `CCCCC1(CCCC)CS(=O)(=O)c2ccc(N(C)C)cc2[C@@H](c2ccc(OCCCC[N+]34CCN(CC3)CC4)cc2)[C@H]1O` [SC-435]: the “Inhibition curves and AUC of NTCP→mAsbt mutant compared to wild-type NTCP” value in assay [1] was “still inactive”. Further, the “Inhibition curves and AUC of NTCP→ASBT mutant compared to wild-type NTCP” value on NTCP M290S (NTCP→ASBT) was “still inactive”.
With `CCCCC1(CCCC)CN(c2ccccc2)c2cc(SC)c(OCC(=O)N[C@@H](C(=O)NCC(=O)O)c3ccccc3)cc2S(=O)(=O)C1` [elobixibat], the “Inhibition curves and AUC of NTCP→mAsbt mutant compared to wild-type NTCP” value in assay [1] is reported as “did not significantly change”. Moreover, the “Inhibition curves and AUC of NTCP→ASBT mutant compared to wild-type NTCP” value on NTCP M290S (NTCP→ASBT) is recorded as “did not significantly change”.
Consider `CCCC[C@]1(CC)CS(=O)(=O)c2cc(CNC(CC(=O)O)CC(=O)O)c(OC)cc2[C@@H](c2ccccc2)N1` [linerixibat], for which the “Inhibition curves and AUC of NTCP→mAsbt mutant compared to wild-type NTCP” value in assay [1] is “still inactive”. Further, the “Inhibition curves and AUC of NTCP→ASBT mutant compared to wild-type NTCP” value on NTCP M290S (NTCP→ASBT) was “still inactive”.
Consider `CCCCC1(CCCC)CS(=O)(=O)c2ccc(N(C)C)cc2[C@@H](c2ccc(OCc3ccc(C[N+]45CCN(CC4)CC5)cc3)cc2)[C@H]1O` [maralixibat], for which the “Inhibition curves and AUC of NTCP→mAsbt mutant compared to wild-type NTCP” value in assay [1] is reported as “did not significantly change”. For the same compound, on NTCP M290S (NTCP→ASBT), the “Inhibition curves and AUC of NTCP→ASBT mutant compared to wild-type NTCP” value is on record as “did not significantly change”.
Consider `CCCCC1(CCCC)CN(c2ccccc2)c2cc(SC)c(OCC(=O)N[C@@H](C(=O)N[C@@H](CC)C(=O)O)c3ccc(O)cc3)cc2S(=O)(=O)N1` [odevixibat], for which, in assay [1], the “Inhibition curves and AUC of NTCP→mAsbt mutant compared to wild-type NTCP” value was “did not significantly change”. For the same compound, the “Inhibition curves and AUC of NTCP→ASBT mutant compared to wild-type NTCP” value at NTCP M290S (NTCP→ASBT) was “did not significantly change”.
